Measurements taken from patent publication US20240016924A1, “NEW ADJUVANT TO IMPROVE THE INNATE IMMUNITY” (INSTITUT NATIONAL DE LA SANTÉ ET DE LA RECHERCHE MÉDICALE, priority 2020, published 2024).

Key:
primary HNECs = assay: Signaling inhibitors on P1-induced TSLP expression; assay type: cell-based, human
Procedure: The expression of short and long form TSLP was quantified as described (Bjerkan, Schreurs et al. 2015, Dong, Hu et al. 2016). Briefly, total RNA was extracted using Trizol. Five hundred nanograms of RNA were treated with ezDNase Enzyme (Thermo Fisher) to remove genomic DNA, and reverse transcribed into cDNA using the kit SuperScript IV VILO Master Mix according to manufacturer instructions (Thermo Fisher). Quantitative PCR was performed using reported primers (Dong, Hu et al. 2016) and the PowerUp SYBR Green Master Mix according to manufacturer instructions (Thermo Fisher). Reactions were performed in triplicates, with glyceraldehyde-3-phosphate dehydrogenase (GAPDH) as the internal control. Amplification, data acquisition, and analysis were carried out using the LightCycler 480 Software (Roche, Mannheim, Germany). The levels of TSLP mRNA were normalized to the levels of GAPDH using the ΔCt method (Schmittgen and Livak 2008) and were presented as 2-ΔCt values.
Signaling inhibitors Confluent HNEC cells in 24-well plate were pre-incubated with inhibitors for 1 h at 37° C. prior to P1 treatment. Inhibitors, namely dexamethasone (Dex) a NF-kB and MAPK inhibitor (used at 100 nM), and Cyclosporin A (CsA) a Calcineurin Inhibitor (used at 1.5 μM), were from Invivogen and used at the manufacturer's recommended concentrations. […]

RPMI 2650 cells = assay: TSLP secretion in nasal RPMI 2650 cell culture supernatants (ELISA); assay type: cell-based, human
Procedure: Nasal RPMI 2650 cells (isolated from the human nasal septum, squamous cell carcinoma, ATCC) were grown in MEMα (Minimum Essential Medium α, Thermo Fisher) supplemented with 10% fetal calf serum (FCS, Eurobio, Courtaboeuf, France) and 1% penicillin/streptomycin.
(§1) TSLP, IL-25/IL-17E, IL-33, IFN-γ, IL-10, IL-12/23p40, IL-4, IL-5, IL-6, IL-13, TNF-α, MMP-9, IL-8/CXCL8, […], MDC/CCL22, TARC/CCL17, APRIL and BAFF were measured in culture supernatants from indicated experiments with custom multiplex Luminex assays (Bio-techne) according to the manufacturer's instructions. Additionally, when indicated TSLP was measured in culture supernatants by enzyme-linked immunosorbent assay (ELISA) with a limit of detection of 8 pg/ml (Thermo Fisher) according to the manufacturer's instructions.
We first investigate whether P1 induced TSLP secretion in nasal epithelium. Therefore, we cultured human nasal epithelial cells (RPMI 2650) with P1 Glade B for 2-24 hours at 37° C. and analyzed the culture supernatants for TSLP secretion.

nasal RPMI cells [1] = assay: Calcium measurement (Fura-2/AM), nasal RPMI cells; assay type: cell-based, human; conditions: P1 125 μM vs 2511M, controls at 125 μM, n=3
Procedure: (§2) 70-80% confluent RPMI 2650 or HNEC cells in 24-well plate were loaded with […] Fura-2/AM (Molecular Probes) in basal medium without serum/growth factors for 1 hour at 37° C. Cells were washed twice with mammalian saline (Conche, Boulla et al. 2009) and measurements were performed in complete medium supplied with HEPS (10 mM) and CaCl2 (2 mM) as described add (Conche, Boulla et al. 2009). Images were acquired with an inverted fluorescence microscope (Observer Z1, Zeiss, Germany) and analyzed with MetaMorph software (Guichard, Bonilla et al. 2017) Calcium was measured every 5 seconds by video fluorescence imaging. Results were expressed as 340 nm to 380 nm fluorescence ratio and normalized to the baseline, i.e. ratio at time zero was set as 1.

primary HNEC cells = assay: Calcium measurement (Fura-2/AM), primary HNEC cells; assay type: cell-based, human; conditions: P1 125 μM vs 2511M, controls at 125 μM, n=3
Procedure: as §2

nasal RPMI cells [2] = assay: Cytokines and chemokines quantification (Luminex), nasal RPMI cells; assay type: cell-based, human; conditions: 125 μM, 24 hrs
Procedure: as §1
We next investigated whether, in addition to TSLP, P1 could stimulate epithelial secretion of additional immune factors prone to attract antigen presenting cells (APCs). […] Together with TSLP (Zhou, Xu et al. 2018), this set of immune factors could facilitate recruitment of APCs to the mucosal surface for initiation of an immune response, since CCL20 and CCL2 chemo-attract macrophages and immature dendritic cells (DCs), and MMP-9 degrades the extracellular matrix and facilitates the migration of immune cells in or out the epithelium. Treg cells have IgA-inducing functions and require RA, TGF-b1, IL-10, and TSLP from intestinal epithelial cells and DCs. So, we assumed IL-10 released from either EC or DC may contribute to IgA class switching (Gutzeit, Magri, et al. 2014).

autologous CD4+ T cells = assay: DC-T co-cultures, CD4+ T cell proliferation (CFSE); assay type: cell-based, human; conditions: peptide-primed eduDCs, 125 μM, 5 days, DC/T 1:5
Procedure: Autologous CD4+ T cells were purified from PMBCs by negative selection according to manufacturer instructions (StemCell Technologies, France) (purity>95%)
DCs and confluent ECs were co-cultured overnight as described above, and DC-EC or eduDC was further incubated with P1 (clade B, 125 μM) or medium for 24 h. Then, DCs were separated and incubated with autologous CD4+ T cells pre-labeled with CFSE (Thermo Fisher) according to the manufacturer's instructions, at a ratio of 1:5 (DC/T). After 5 days of culture, CD4+ T cell proliferation was analyzed by flow cytometry as described (Yeh, Yeh et al. 2013, Qin, Yin et al. 2015) using Phytohaemagglutinin (PHA) (5 μg/mL) as positive control.

[3] = intranasal immunization, gp140 antigen; Van Roey, Arias et al. 2012; cited from earlier work
[4] = test system: CD8-depleted PBMCs cocultured with RPMI 2650 cells; assay: In vitro immunization assay with ovalbumin; assay type: cell-based, human; conditions: OVA alone 10 μg/mL, no adjuvant
Procedure: In vitro immunization assay was performed as reported (Jung, Matsumoto et al. 2007) with modifications. Briefly, 1×10^6 CD8-depleted PBMCs (Human CD8 Depletion Cocktail, StemCell Technologies, France) were cocultured for 24 hrs with RPMI 2650 cells ([…]) pre-seeded in 48 well plates for 48 hrs. Then, ovalbumin (OVA, EndoFit Ovalbumin, 10 µg/mL, Invivogen) alone, OVA together with P1 (5 μM, 25 μM, 125 μM), OVA together with P1 mutant (P1mut, 125 μM), or medium were added to in RPMI 1640 medium supplemented with Non-Essential Amino Acids (NEAA solution, Thermo Fisher), IL-4 ([…]), IL-2 (10 UI/mL) and 2-mercaptoethanol (20 μM) for 7 days.
For the detection of OVA-specific B cells, at indicated time of culture, PMBCs were surface stained with ovalbumin conjugated to fluorescein (OVA-FITC, 20 ug/mL, Thermo), PE-conjugated mouse anti-human CD20 (BD Biosciences, CA, USA), APC-conjugated goat anti-human IgA or donkey anti-human IgG (Jackson ImmunoResearch, PA, USA) as indicated by the manufacturer. Specific labeling was quantified by flow cytometry with a Guava EasyCyte flow cytometer (Merck-Millipore), and analyzed with the dedicated InCyte software, using the following strategy: CD20+ B cells were first gated and cell double positive for OVA-FITC+ and APC-conjugated anti-IgA or anti-IgG were determined as OVA-IgA or IgG-specific B-cell s.
In vitro immunization assays have been used to produce specific monoclonal antibodies using a defined antigen complemented with an adjuvant (Borrebaeck, Danielsson et al. 1987). Here, we establish a mucosal immunization model adapted from (Jung, Matsumoto et al. 2007, Yeh, Yeh et al. 2013, Wijkhuisen, Savatier et al. 2016) and using mucosal DCs based on our results presented above. OVA was selected as the model antigen. Therefore, human CD8-depleted PBMCs (n=5 independent donors) were cocultured with RPMI 2650 cells for one day to educate DCs, and prior to addition of either medium, OVA, OVA plus P1 mutant (P1mut, 125 μM) or OVA plus P1 (5 μM, 25 μM, 125 μM) for seven more days. OVA-specific B cells were quantified by flow cytometry using FITC-conjugated OVA and anti-CD2O-PE to gate on OVA-specific B cells. The Ig isotype of surface B cell receptor (BCR) was next characterized by APC-conjugated anti-human-IgA or anti-human-IgG. […] Similar results were obtained when B cells were stained with anti-CD19-PE.

## CC(C)CC(=O)N1CCN(C(=O)CCCCCN)CC1 [ENMD-1068]
Primary HNECs; 1 h pre-treatment before P1, CsA 1.5 μM, ENMD-1068 500 μg/mL, n=3
  reduction of P1-induced TSLP expression: 46±24%
Primary HNECs; inhibitor pre-treatment before P1
  P1-induced up-regulation of miR-4485-3p: blocked the up-regulation of miR-4485-3p

## SQIQQKKNEQDLLALDKWANLWNWFDISNWLWYIR (Synthetic P1 clade A) [P1 Glade A]
RPMI 2650 cells; 125 uM, p<0.05, n=5
  Reduction of TSLP secretion compared to clade B P1: 20%
RPMI 2650 cells; peptide at 125 uM, 4 hours, n=5
  Secretion of TSLP: 41.8 ± 2.6 pg/mL

## SQTQQEKNEQELLALDSWKNLWNWFSITNWLWYIK [P1 Glade C]
RPMI 2650 cells; RPMI nasal cells, 4 hours
  Induction of TSLP secretion by P1 variants: failed to induce TSLP secretion
Nasal RPMI cells [1]
  extracellular calcium influx (340/380 nm ratio): fails to raise the calcium level significantly
Primary HNEC cells
  extracellular calcium influx (340/380 nm ratio): fails to raise the calcium level significantly
Nasal RPMI cells [2]
  secretion of MMP-9, CCL20, CCL2 and IL-10: unable to stimulate significant MMP-9, CCL-20 CCL2 or IL-10 production
Autologous CD4+ T cells
  proliferation of autologous CD4+ T cells: has no effect

## Thymic stromal lymphopoietin [TSLP]
[3]
  humoral response as mucosal adjuvant: induced a strong humoral response both in serum and at genital level

B1: ovalbumin (protein, UniProt P01012 2-386, looked up)
Ovalbumin: GSIGAASMEFCFDVFKELKVHHANENIFYCPIAIMSALAMVYLGAKDSTRTQINKVVRFDKLPGFGDSIEAQCGTSVNVHSSLRDILNQITKPNDVYSFSLASRLYAEERYPILPEYLQCVKELYRGGLEPINFQTAADQARELINSWVESQTNGIIRNVLQPSSVDSQTAMVLVNAIVFKGLWEKAFKDEDTQAMPFRVTEQESKPVQMMYQIGLFRVASMASEKMKILELPFASGTMSMLVLLPDEVSGLEQLESIINFEKLTEWTSSNVMEERKIKVYLPRMKMEEKYNLTSVLMAMGITDVFSSSANLSGISSAESLKISQAVHAAHAEINEAGREVVGSAEAGVDAASVSEEFRADHPFLFCIKHIATNAVLFFGRCVSP
notes: model antigen, EndoFit Ovalbumin, Invivogen
[4]
  induction of OVA-specific B cells: failed to induce OVA-specific specific B cells
